Where two headings read alike, the source gives them in different places.
How the values were obtained:
Format in all cases: cell-based
U87 (glioblastoma) = test: cells; conditions: read-out: GI50 U87
SJ-G2 (glioblastoma) = test: cells; conditions: read-out: GI50 SJ-G2
[1] = tested on: panel of eleven cancer cell lines and one normal cell line; test: MTT cytotoxicity, panel of eleven cancer cell lines and one normal cell line; conditions: for activity in initial screen: 25 μM drug concentration; for levels of toxicity: against HT29, U87, A2780, MIA and SMA cell lines; for GI50: read-out: average GI50
[2] = tested on: MIA (pancreatic carcinoma); test: cells; conditions: read-out: GI50 MIA
[3] = tested on: SMA (spontaneous murine astrocytoma); test: cells; conditions: Mus musculus, 72 h, read-out: GI50 SMA
MCF-7 (breast carcinoma) = test: cells; conditions: read-out: GI50 MCF-7
[4] = tested on: A2780 (ovarian carcinoma); test: cells; conditions: read-out: GI50 A2780
MCF10A (normal breast) = test: cells; conditions: read-out: GI50 MCF10A
[5] = tested on: Du145 (prostate carcinoma); test: cells; conditions: read-out: GI50 Du145
BE2-C (neuroblastoma) = test: cells; conditions: read-out: GI50 BE2-C
A431 (skin carcinoma) = test: cells; conditions: read-out: GI50 A431
H460 (lung carcinoma) = test: cells; conditions: read-out: GI50 H460
HT29 (colon carcinoma) = test: cells; conditions: read-out: GI50 HT29

Molecule | GI50 (U87 (glioblastoma); 72 h) [µM] | GI50 (SJ-G2 (glioblastoma); SJ-G2, 72 h) [µM] | activity in initial screen [1] | levels of toxicity [1] | GI50 [1] [µM] | GI50 ([2]; 72 h) [µM] | GI50 [3] [µM] | GI50 (MCF-7 (breast carcinoma); Homo sapiens, MCF7, 72 h) [µM] | GI50 ([4]; Homo sapiens, A2780, 72 h) [µM] | GI50 (MCF10A (normal breast); Homo sapiens, MCF-10A, 72 h) [µM] | GI50 ([5]; Homo sapiens, DU-145, 72 h) [µM] | GI50 (BE2-C (neuroblastoma); Homo sapiens, BE(2)-C, 72 h) [µM] | GI50 (A431 (skin carcinoma); Homo sapiens, A-431, 72 h) [µM] | GI50 (H460 (lung carcinoma); Homo sapiens, NCI-H460, 72 h) [µM] | GI50 (HT29 (colon carcinoma); Homo sapiens, HT-29, 72 h) [µM] | further results
C#CC(=O)N(c1ccccc1)C(C(=O)NC1CCCCC1)c1ccccc1 (racemic) [Compound 12, (RS)-N-(2-(Cyclohexylamino)-2-oxo-1-phenylethyl)-N-phenylpropiolamide] | 0.19 ± 0.01 | 3 ± 0.1 | sufficiently promising activity | sub-micro molar | 1.16 | 0.25 ± 0.02 | 0.25 | 1.6 ± 0.29 | 0.23 ± 0.02 | 2.9 ± 0.1 | 0.18 ± 0.01 | 0.5 ± 0.2 | 1 ± 0.2 | 3.6 ± 0.6 | 0.27 ± 0.01 | –
C#CC(=O)N(c1ccccc1)C(C(=O)NC1CCCCC1)c1ccc(OC)c(OC)c1 (racemic) [Compound 21, (RS)-N-(2-(Cyclohexylamino)-1-(3,4-dimethoxyphenyl)-2-oxoethyl)-N-phenylpropiolamide] | 0.73 ± 0.13 | 1.6 ± 0.18 | – | – | – | 0.44 ± 0.14 | – | 1.5 ± 0.12 | 0.54 ± 0.12 | 5.1 ± 0.4 | 0.61 ± 0.25 | 0.27 ± 0.029 | 1 ± 0.29 | 2.8 ± 1.1 | 0.53 ± 0.041 | –
C#CC(=O)N(c1ccccc1)C(C(=O)NCc1ccccc1)c1ccccc1 (racemic) [Compound 17a, (RS)-N-(2-(Benzylamino)-2-oxo-1-phenylethyl)-N-phenylpropiolamide] | 0.13 ± 0.017 | 2.5 ± 0.1 | sufficiently promising activity | sub-micro molar | 0.97 | 0.15 ± 0.009 | 0.16 | 1.7 ± 0.2 | 0.1 ± 0.034 | 1.4 ± 0.4 | 1 ± 0.01 | 1.4 ± 0.3 | 0.97 ± 0.2 | 2 ± 0.5 | 0.17 ± 0.003 | –
N-(2-cyclohexylamino)-1-(4-methoxyphenyl)-2-oxoethyl-N-(3,5-dimethoxyphenyl)propiolamide [Compound 1, reference compound] | – | – | – | – | – | – | – | – | – | – | – | – | – | – | – | GI50 (U87 (glioblastoma); Table 5, 72 h exposure, MTT): 0.06 ± 0.02 µM; GI50 (SJ-G2 (glioblastoma); Table 5, 72 h exposure, MTT): 1.7 ± 0.26 µM; GI50 ([1]; across the cancer cell lines evaluated): ≤ 1 µM; GI50 ([2]; Table 5, 72 h exposure, MTT): 0.06 ± 0.03 µM; GI50 (MCF-7 (breast carcinoma); Table 5, 72 h exposure, MTT): 1.7 ± 0.17 µM; GI50 ([4]; Table 5, 72 h exposure, MTT): 0.58 ± 0.51 µM; GI50 (MCF10A (normal breast); Table 5, normal breast cell line, 72 h exposure, MTT): 0.29 ± 0.03 µM; GI50 ([5]; Table 5, 72 h exposure, MTT): 0.11 ± 0.05 µM; GI50 (BE2-C (neuroblastoma); Table 5, 72 h exposure, MTT): 0.03 ± 0.01 µM; GI50 (A431 (skin carcinoma); Table 5, 72 h exposure, MTT): 0.46 ± 0.15 µM; GI50 (H460 (lung carcinoma); Table 5, 72 h exposure, MTT): 1.4 ± 0.6 µM; GI50 (HT29 (colon carcinoma); Table 5, 72 h exposure, MTT): 0.07 ± 0.01 µM
C#CC(=O)N(c1ccc(OC)cc1)C(C(=O)NC1CCCCC1)c1ccccc1 (racemic) [Compound 19, (RS)-N-(2-(Cyclohexylamino)-2-oxo-1-phenylethyl)-N-(4-methoxyphenyl)propiolamide] | 0.22 | 0.76 ± 0.57 | – | – | – | 0.2 ± 0.02 | – | 1.2 ± 0.033 | 0.22 ± 0.017 | 3.3 ± 0.52 | 0.2 ± 0.069 | 0.2 ± 0.0067 | 0.59 ± 0.26 | 2.2 ± 0.2 | 0.2 ± 0.02 | –

Reference: article PMC9061180 (RSC Advances, 2019)
